Series [1] concerns RAW264.7. The series is described as follows: Anti-inflammatory activity in mouse RAW264.7 cells assessed as inhibition of LPS-induced NO production preincubated for 2 hrs followed by LPS addition and measured after 18 hrs by Griess reagent-based assay. It is filed as functional, cell-based.
Series [2] deals with RAW264.7. In words: Anti-inflammatory activity in mouse RAW264.7 cells assessed as inhibition of LPS-induced iNOS level after 16 hrs by Western blot analysis. The class given is functional, cell-based.
In series [3] the test system is RAW264.7. In words: Anti-inflammatory activity in mouse RAW264.7 cells assessed as inhibition of LPS-induced IL-6 level after 24 hrs by ELISA. It is filed as functional, cell-based. Background: ELISA stands for enzyme-linked immunosorbent assay.
For series [4], the target named is T1, Inhibitor of nuclear factor kappa-B kinase subunit beta (Mus musculus) (UniProt O88351).
T1 sequence (whole entry): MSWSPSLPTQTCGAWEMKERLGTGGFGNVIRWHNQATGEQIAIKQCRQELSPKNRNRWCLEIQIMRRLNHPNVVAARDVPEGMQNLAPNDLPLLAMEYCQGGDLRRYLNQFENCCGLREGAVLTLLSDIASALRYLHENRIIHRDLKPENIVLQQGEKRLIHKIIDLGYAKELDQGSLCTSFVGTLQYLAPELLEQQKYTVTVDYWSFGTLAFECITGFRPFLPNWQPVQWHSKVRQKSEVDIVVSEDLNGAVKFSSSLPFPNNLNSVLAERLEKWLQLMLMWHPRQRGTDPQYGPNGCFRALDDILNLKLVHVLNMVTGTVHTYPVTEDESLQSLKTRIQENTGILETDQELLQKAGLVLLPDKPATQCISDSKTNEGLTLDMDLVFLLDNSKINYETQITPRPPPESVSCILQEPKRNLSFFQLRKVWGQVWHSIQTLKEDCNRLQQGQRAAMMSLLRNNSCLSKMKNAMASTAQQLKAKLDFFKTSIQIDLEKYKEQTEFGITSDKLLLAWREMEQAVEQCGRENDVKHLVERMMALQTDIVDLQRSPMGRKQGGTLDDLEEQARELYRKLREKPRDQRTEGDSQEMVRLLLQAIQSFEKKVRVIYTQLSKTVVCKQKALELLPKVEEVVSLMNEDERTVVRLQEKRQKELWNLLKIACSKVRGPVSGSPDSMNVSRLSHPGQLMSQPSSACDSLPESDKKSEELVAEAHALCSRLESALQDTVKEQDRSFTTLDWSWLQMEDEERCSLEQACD
The series is described as follows: Inhibition of IKKbeta in mouse RAW264.7 cells assessed as inhibition of LPS-induced IKK-beta phosphorylation level after 16 hrs by Western blot analysis. The class given is cell-based. (In general: Immunoblotting shows a protein as a band on a membrane.)

In series [5] the test system is RAW264.7. In words: Anti-inflammatory activity in mouse RAW264.7 cells assessed as inhibition of LPS-induced TNF-alpha level after 24 hrs by ELISA. It is filed as functional, cell-based.
Series [6] addresses T2, Inhibitor of nuclear factor kappa-B kinase subunit alpha (Mus musculus) (UniProt Q60680).
T2 sequence (whole entry): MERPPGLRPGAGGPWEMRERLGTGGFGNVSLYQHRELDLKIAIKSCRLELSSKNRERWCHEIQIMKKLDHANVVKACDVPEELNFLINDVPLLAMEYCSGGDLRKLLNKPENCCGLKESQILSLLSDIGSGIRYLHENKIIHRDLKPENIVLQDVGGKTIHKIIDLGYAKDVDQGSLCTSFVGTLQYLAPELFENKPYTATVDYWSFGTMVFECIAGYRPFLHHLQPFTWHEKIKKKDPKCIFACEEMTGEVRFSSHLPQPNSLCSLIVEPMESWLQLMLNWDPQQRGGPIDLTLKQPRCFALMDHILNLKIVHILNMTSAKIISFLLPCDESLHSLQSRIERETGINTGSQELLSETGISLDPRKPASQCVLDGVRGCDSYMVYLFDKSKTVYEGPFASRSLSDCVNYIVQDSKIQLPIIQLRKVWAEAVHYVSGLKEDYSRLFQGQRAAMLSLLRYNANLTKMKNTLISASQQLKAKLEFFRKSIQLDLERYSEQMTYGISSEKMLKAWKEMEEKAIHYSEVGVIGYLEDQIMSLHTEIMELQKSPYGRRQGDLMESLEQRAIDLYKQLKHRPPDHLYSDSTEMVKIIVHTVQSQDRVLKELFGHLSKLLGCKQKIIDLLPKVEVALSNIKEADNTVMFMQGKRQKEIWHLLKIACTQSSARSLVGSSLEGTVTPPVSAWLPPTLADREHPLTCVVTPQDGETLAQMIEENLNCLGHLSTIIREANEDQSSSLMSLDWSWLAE
The series is described as follows: Inhibition of IKKalpha in mouse RAW264.7 cells assessed as inhibition of LPS-induced IKK-alpha phosphorylation level after 16 hrs by Western blot analysis. It is filed as cell-based.

Series [7] deals with RAW264.7. The series is described as follows: Cytotoxicity against mouse RAW264.7 cells assessed as reduction in cell viability at 3.1 to 25 uM after 48 hrs by MTT assay. As to conditions: raw264.7, 48 h, dose 3.1-25 µM. It is filed as cell-based.
Series [8] relates to RAW264.7. The series is described as follows: Anti-inflammatory activity in mouse RAW264.7 cells assessed as inhibition of LPS-induced COX-2 level after 16 hrs by Western blot analysis. It is filed as functional, cell-based.
The test system of series [9] is RAW264.7. The series is described as follows: Anti-inflammatory activity in mouse RAW264.7 cells assessed as inhibition of LPS-induced IL-1beta level after 24 hrs by ELISA. It is filed as functional, cell-based.

The source made the active and inactive calls. The rule behind the calls is not given here. Bounds are passed on as bounds.

In the case of `COC1CC(O)(CCC2=C(C)C(=O)[C@@H](O)[C@H]3C(C)(C)CCC[C@]23C)CO1` (stereo partly specified), in the series on RAW264.7 [1], the IC50 is 26.4 µM. As to `CC(=O)O[C@@H]1CC[C@]2(C)C(CCc3ccoc3)=C(C)C(=O)[C@@H](O)[C@H]2C1(C)C`, the IC50 in the series on RAW264.7 [1] worked out at 22.5 µM.

`CCC(=O)[C@H]1O[C@@](CCC2=CC(OC)OC2=O)(OC)[C@@]2(C)CC[C@@H](OC(C)=O)C(C)(C)[C@H]12` (stereo partly specified): the IC50 in the series on RAW264.7 [1] is over 50 µM. On to `CC(=O)O[C@@H]1CC[C@@]2(C)[C@@H](C(=O)[C@H](O)[C@@H](C)[C@]2(O)CCc2ccoc2)C1(C)C`, for which, in the series on RAW264.7 [1], the IC50 was over 50 µM. `CCC(O)C(=O)[C@H]1C(C)(C)C(=O)CC[C@]1(C)C(=O)CCc1ccoc1` (stereo partly specified): the IC50 in the series on RAW264.7 [1] was over 50 µM.

Turning to `CCOC1CC(O)(CCC2=C(C)C(=O)[C@@H](O)[C@H]3C(C)(C)[C@H](OC(C)=O)CC[C@]23C)CO1` (stereo partly specified), the IC50 with RAW264.7 [1] was 30.4 µM. On the same count and under the same terms, next, `CCC(=O)[C@H]1O[C@@](CCc2ccoc2)(OC)[C@@]2(C)CCCC(C)(C)[C@H]12`: over 50 µM. On the same count and under the same terms, the figure for `C[C@@H]1C[C@H]2[C@@H]3CCC4=CC(=O)C=C[C@]4(C)[C@@]3(F)[C@@H](O)C[C@]2(C)[C@@]1(O)C(=O)CO` [DEXAMETHASONE] is 24.3 µM; for `CCC(O)C(=O)[C@H]1C(C)(C)CCC[C@]1(C)C(=O)CCC1=CCOC1=O` (stereo partly specified) it is over 50 µM.

`CO[C@H]1C=C(CCC2=C(C)C(=O)C(O)=C3C(C)(C)C(=O)CC[C@]23C)C(=O)O1`: the IC50 in the series with RAW264.7 [1] was over 50 µM. Same read-out and setting: the figure for `CC1=CC[C@H]2C(C)(C)CCC[C@]2(C)[C@H]1CC/C(C)=C/CO` is 20 µM; for `CCOC1CC(O)(CCC2=C(C)C(=O)C(O)=C3C(C)(C)[C@H](OC(C)=O)CC[C@]23C)CO1` (stereo partly specified) it is 21.7 µM. On to `CCOC1CC(O)(CCC2=C(C)C(=O)C(O)=C3C(C)(C)C(=O)CC[C@]23C)CO1` (stereo partly specified), for which, in the series on RAW264.7 [1], the IC50 was determined as 22.9 µM. On the same count and under the same terms, next, `CC1=C(CCc2ccoc2)[C@@]2(C)CCC(=O)C(C)(C)C2=C(O)C1=O`: over 50 µM; `CCC(=O)[C@H]1O[C@@](CCC2=CCOC2=O)(OC)[C@@]2(C)CCCC(C)(C)[C@H]12`: 21.9 µM. Consider `COC(OC)[C@@]1(C)CCC[C@@]2(C)[C@H]1CC=C(C)[C@@H]2CC/C(C)=C/CO`, for which, in the series on RAW264.7 [1], the IC50 is over 50 µM. Consider `CCC(=O)[C@H]1O/C(=C\Cc2ccoc2)[C@@]2(C)CCCC(C)(C)[C@H]12`, for which the IC50 in the series with RAW264.7 [1] was over 50 µM.

Take `CC1=CC[C@@H]2[C@](C)(CCC[C@]2(C)C=O)[C@H]1CC/C(C)=C/CO`: the half-inhibitory concentration (IC50) in the series with RAW264.7 [1] worked out at 29 µM. Take `CCC(=O)[C@H]1O[C@@](CCC2=CC(OC)OC2=O)(OC)[C@@]2(C)CCCC(C)(C)[C@H]12` (stereo partly specified): the inhibition result (in the series with RAW264.7 [2]; in series [4]; in series [6]; with RAW264.7 [8]) was “Active” throughout. In addition, the inhibition result with RAW264.7 [3], in the series with RAW264.7 [5] and in the series on RAW264.7 [9] was “Dose-dependent effect” in each case. In the series on RAW264.7 [1], the IC50 worked out at 3.9 µM. Moreover, the Activity entry with RAW264.7 [7] is given as “Non-Toxic”.

For the compound `CCC(=O)[C@H]1O[C@](O)(CCC2=CC(OC)OC2=O)[C@@]2(C)CCCC(C)(C)[C@H]12` (stereo partly specified), the IC50 with RAW264.7 [1] was 15.7 µM. Same read-out and setting: next, `CC1=CC[C@@H]2[C@](C)(CCC[C@]2(C)C(=O)O)[C@H]1CC/C(C)=C/CO`: 41.1 µM. With `CO[C@@H]1C=C(CCC2=C(C)C(=O)C(O)=C3C(C)(C)C(=O)CC[C@]23C)C(=O)O1`, the IC50 in the series on RAW264.7 [1] was over 50 µM. Same read-out and setting: next, `C=C1CC[C@H]2C(C)(C)CCC[C@]2(C)[C@H]1CC/C(C)=C/CO`: 33.4 µM; `CC1=C(CCc2ccoc2)[C@@]2(C)CC[C@@H](O)C(C)(C)[C@@H]2[C@H](O)C1=O`: over 50 µM; `CC1=C(CCc2ccoc2)[C@@]2(C)CCCC(C)(C)[C@@H]2[C@H](O)C1=O`: over 50 µM. For the compound `CC1=C(CCc2ccoc2)[C@@]2(C)CCCC(C)(C)C2=C(O)C1=O`, the IC50 in the series on RAW264.7 [1] was found to be 46.1 µM. Take `CCC(=O)C1O[C@](O)(CCc2ccoc2)[C@@]2(C)CCCC(C)(C)[C@H]12` (single isomer, unassigned): the IC50 with RAW264.7 [1] is over 50 µM. Still for that read-out and setting: the figure for `C[C@@H]1[C@@H](O)C(=O)[C@H]2C(C)(C)CCC[C@]2(C)[C@@]1(O)CCc1ccoc1` is over 50 µM; for `CC(=O)O[C@@H]1CC[C@]2(C)C(CCC3=CCOC3=O)=C(C)C(=O)[C@@H](O)[C@H]2C1(C)C` it is over 50 µM. For the compound `CCOC1CC(O)(CCC2=C(C)C(=O)[C@@H](O)[C@H]3C(C)(C)CCC[C@]23C)CO1` (stereo partly specified), the IC50 in the series on RAW264.7 [1] is over 50 µM. Same read-out and setting: next, `C[C@H]1C(=O)[C@@H](O)[C@H]2C(C)(C)C(=O)CC[C@]2(C)[C@@]1(O)CCc1ccoc1`: over 50 µM; `CC1=C(CCC2=CCOC2=O)[C@@]2(C)CCCC(C)(C)[C@@H]2CC1=O`: 43.9 µM. In the case of `CC1=C(CCc2ccoc2)[C@@]2(C)CCC(=O)C(C)(C)[C@@H]2[C@@H](O)C1=O`, in the series on RAW264.7 [1], the 50% inhibitory concentration (IC50) was over 50 µM. With `C[C@@H]1C(=O)C(O)=C2C(C)(C)C(=O)CC[C@]2(C)[C@@]1(O)CCc1ccoc1`, the IC50 in the series with RAW264.7 [1] is over 50 µM. On the same count and under the same terms, the figure for `COC1C=C(CCC2=C(C)C(=O)C(O)=C3C(C)(C)[C@H](OC(C)=O)CC[C@]23C)C(=O)O1` (stereo partly specified) is 40.8 µM. Same read-out and setting: next, `COC1C=C(CCC2=C(C)C(=O)[C@@H](O)[C@H]3C(C)(C)[C@H](O)CC[C@]23C)C(=O)O1` (stereo partly specified): 27.5 µM; `COC1C=C(CC[C@@]2(O)[C@H](C)C(=O)[C@@H](O)[C@H]3C(C)(C)CCC[C@@]32C)C(=O)O1` (stereo partly specified): 24.7 µM. The same measure, in the same setting: the figure for `CC1=CC[C@H]2[C@@](C)(CO)CCC[C@]2(C)[C@H]1CC/C(C)=C/CO` is 33.4 µM.

As a reminder, the IC50 is the concentration that inhibits the measured activity by half.

The values above are taken from ChEMBL document CHEMBL4665814, “Structurally Diverse Labdane Diterpenoids from Leonurus japonicus and Their Anti-inflammatory Properties in LPS-Induced RAW264.7 Cells” (J Nat Prod, 2020).
